pKd: −log10 of the molar value.
Legend:
[1] = Growth inhibition of human BT/LapR1.0 cells at 5 uM incubated for 72 hrs by ATP detection based luminescent assay; type: functional; details: read-out: GI
MDA-MB-361 = experiment: Growth inhibition of human MDA-MB-361 cells at 5 uM incubated for 72 hrs by ATP detection based luminescent assay; type: functional; details: MDA-MB-361, 72 h, read-out: GI
[2] = Growth inhibition of human SK/LapR1.0 cells at 5 uM incubated for 72 hrs by ATP detection based luminescent assay; type: functional; details: read-out: GI
[3] = Growth inhibition of human BT474 cells at 5 uM incubated for 72 hrs by ATP detection based luminescent assay; type: functional; details: BT-474, 72 h, read-out: GI
[4] = Growth inhibition of human SKBR3 cells at 5 uM incubated for 72 hrs by ATP detection based luminescent assay; type: functional; details: SK-BR-3, 72 h, read-out: GI
MDA-MB-453 = experiment: Growth inhibition of human MDA-MB-453 cells at 5 uM incubated for 72 hrs by ATP detection based luminescent assay; type: functional; details: MDA-MB-453, 72 h, read-out: GI
Homo sapiens = species on record: Homo sapiens; experiment: Inhibition of HSP70 (unknown origin) at 200 uM pre-incubated for 30 mins followed by ATP addiction and measured after 3 hrs by malachite green reagent based colorimetric assay
[5] = Binding affinity to human HSP70 at 25 degC by surface plasmon resonance assay

Row | SMILES | inhibition of growth at 5 µM [1] | inhibition of growth at 5 µM (MDA-MB-361) | inhibition of growth at 5 µM [2] | inhibition of growth at 5 µM [3] | inhibition of growth at 5 µM [4] | inhibition of growth at 5 µM (MDA-MB-453) | inhibition (Homo sapiens) | pKd [5]
1 | CN(Cc1cccc(Cl)c1)C1CCN(Cc2cnc(Cl)s2)CC1 | 8.4% | 9.7% | 8.5% | 7.1% |  |  |  | 
2 | COc1nccc(N2CCC(N(C)Cc3ccccc3Cl)CC2)n1 | 28.6% | 45.1% | 35.8% | 36.7% | 41.4% | 60.8% | 6.11% | 
3 | COc1cc(N2CCC(N(C)Cc3ccc(C#N)cc3)CC2)ncn1 |  |  | 8.8% |  |  |  |  | 
4 | CN(Cc1c(F)cccc1Cl)C1CCN(Cc2cnc(Cl)s2)CC1 | 3.2% |  | 1.5% |  | 9.8% |  |  | 
5 | Cc1ccc(CN(C)C2CCN(Cc3cnc(Cl)s3)CC2)cc1 | 16% |  | 8.4% |  |  |  |  | 
6 | CSc1nccc(N2CCC(N(C)Cc3cccc(F)c3)CC2)n1 | 63.9% | 50.4% | 35.2% | 67.1% | 32.6% | 66.2% |  | 
7 | CN(Cc1ccccc1C#N)C1CCN(Cc2cnc(Cl)s2)CC1 | 4% | -8.5% | 4.2% | -4.1% | 7.3% | 8.2% |  | 
8 | COc1cc(N2CCC(N(C)Cc3ccccc3Cl)CC2)ncn1 |  |  | 29% |  |  |  |  | 
9 | CSc1ncc(CN2CCC(N(C)Cc3c(F)cccc3Cl)CC2)s1 | 59.9% | 47.2% | 4.5% | 49.5% | 9.2% | 65.3% |  | 
10 | COc1ccc(-c2nc(-c3cc(C(F)(F)F)cc(C(F)(F)F)c3)n(Cc3ccc(C(N)=O)cc3)c2-c2ccc(OC)cc2)cc1 |  |  |  |  |  |  | 53.1% | 
11 | CSc1nccc(N2CCC(N(C)Cc3ccccc3C#N)CC2)n1 | 68.1% | 64.1% | 80.7% | 74.2% | 87.6% | 68.7% | 16.7% | 
12 | CN(Cc1c(Cl)cccc1Cl)C1CCN(Cc2cnc(Cl)s2)CC1 | 66.3% | 36.3% | 4.5% | 70% | 37.8% | 72.4% |  | 
13 | CSc1ncc(CN2CCC(N(C)Cc3cccc(F)c3)CC2)s1 |  |  | 2.1% |  |  |  |  | 
14 | CSc1nccc(N2CCC(N(C)Cc3ccc(F)cc3)CC2)n1 |  | 46% |  |  |  |  | 7.73% | 6.69
15 | CN(Cc1ccc(Cl)c(Cl)c1)C1CCN(Cc2cnc(Cl)s2)CC1 |  |  | 5.3% |  |  |  |  | 
16 | COc1cc(N2CCC(N(C)Cc3ccc(F)cc3)CC2)ncn1 | 8.1% | 4.9% | 5.7% | 7.8% | 7.6% | 5% |  | 
17 | Clc1ncc(CN2CCC(NCc3ccc(Cl)c(Cl)c3)CC2)s1 |  |  |  | 11% |  |  |  | 
18 | CCOc1ncc(CN2CCC(N(C)Cc3cccc(Cl)c3)CC2)s1 |  |  | 5.2% |  |  |  |  | 
19 | CSc1nccc(N2CCC(N(C)Cc3ccc(C)cc3)CC2)n1 | 65.8% | 55.7% | 42% | 69.2% | 38.9% | 66.6% |  | 
20 | CCOc1ncc(CN2CCC(N(C)Cc3ccccc3Cl)CC2)s1 |  |  | 0.6% |  |  |  |  | 
21 | COc1nccc(N2CCC(N(C)Cc3cc(Cl)ccc3Cl)CC2)n1 | 22.7% | 22% | 11.7% | 27.5% | 24.7% | 50.6% |  | 
22 | CS(=O)(=O)CCNCc1ccc(-c2ccc3ncnc(Nc4ccc(OCc5cccc(F)c5)c(Cl)c4)c3c2)o1 [LAPATINIB] | 18% |  |  |  | 79% |  |  | 
23 | CSc1ncc(CN2CCC(N(C)Cc3ccc(Cl)cc3Cl)CC2)s1 |  |  |  | 70% |  |  | 6.21% | 
24 | COc1nccc(N2CCC(N(C)Cc3ccc(C)cc3)CC2)n1 | 58.8% | 30.1% | 13.5% | 61.5% | 19.7% | 68.9% |  | 
25 | CCOc1ncc(CN2CCC(N(C)Cc3cc(Cl)ccc3Cl)CC2)s1 | 9.6% |  | 5.2% | 5.6% | 9.4% |  |  | 
26 | COc1cc(N2CCC(N(C)Cc3cccc(Cl)c3)CC2)ncn1 | 9.4% |  |  |  |  |  |  | 

Row | SMILES | inhibition of growth at 5 µM [1] | inhibition of growth at 5 µM (MDA-MB-361) | inhibition of growth at 5 µM [2] | inhibition of growth at 5 µM [3] | inhibition of growth at 5 µM [4] | inhibition of growth at 5 µM (MDA-MB-453) | inhibition (Homo sapiens) | pKd [5]
27 | CCOc1ncc(CN2CCC(N(C)Cc3ccc(F)cc3)CC2)s1 |  |  |  |  | 26% |  |  | 
28 | Cc1ccccc1CN(C)C1CCN(Cc2cnc(Cl)s2)CC1 | 4% | 4.4% | 5.1% | 1.5% | 9.7% | 3.5% |  | 
29 | Fc1ccc(CNC2CCN(Cc3cnc(Cl)s3)CC2)cc1 | 66.3% | 36.3% | 40.4% | 70% | 37.8% | 72.4% |  | 
30 | CN(Cc1ccc(C#N)cc1)C1CCN(Cc2cnc(Cl)s2)CC1 |  |  | 7.5% |  |  |  | 11.3% | 
31 | CSc1ncc(CN2CCC(N(C)Cc3ccc(C)cc3)CC2)s1 |  |  |  |  |  |  | 10.6% | 6.70
32 | CCOc1ncc(CN2CCC(N(C)Cc3c(Cl)cccc3Cl)CC2)s1 |  |  | 5.1% |  |  |  |  | 
33 | N#Cc1ccc(COC[C@H]2O[C@@H](n3c(NCc4ccc(Cl)c(Cl)c4)nc4c(N)ncnc43)[C@H](O)[C@@H]2O)cc1 |  |  |  |  |  |  | 43% | 6.69
34 | CSc1ncc(CN2CCC(N(C)Cc3ccccc3C)CC2)s1 | 1.4% |  | 6.9% |  |  |  |  | 
35 | CN(Cc1ccc(F)cc1)C1CCN(Cc2cnc(Cl)s2)CC1 | 9% | -1.3% | -0.1% | 7.1% |  | 11% |  | 
36 | CSc1nccc(N2CCC(N(C)Cc3ccc(Cl)c(Cl)c3)CC2)n1 |  |  |  |  |  | 60% |  | 
37 | COc1cc(N2CCC(N(C)Cc3ccc(C)cc3)CC2)ncn1 | 8% |  | 22% | 5% |  |  |  | 
38 | CSc1nccc(N2CCC(N(C)Cc3cc(Cl)ccc3Cl)CC2)n1 | 56.9% | 45.7% | 29.4% | 61% | 19.3% | 69.3% |  | 
39 | COc1cc(N2CCC(N(C)Cc3cc(Cl)ccc3Cl)CC2)ncn1 | 5.6% | 8.4% | 9.4% | 5.4% | 5.2% | 9.4% |  | 
40 | CCOc1ncc(CN2CCC(N(C)Cc3ccc(Cl)cc3Cl)CC2)s1 |  |  | 12% |  |  |  | 4.5% | 
41 | CSc1ncc(CN2CCC(N(C)Cc3cccc(Cl)c3)CC2)s1 |  |  | 7.3% |  |  |  |  | 6.61
42 | COc1nccc(N2CCC(N(C)Cc3ccccc3C#N)CC2)n1 | 72.7% | 53.3% | 74.3% | 71.6% | 86.5% | 79.5% |  | 
43 | CN(Cc1cccc(F)c1)C1CCN(Cc2cnc(Cl)s2)CC1 | 5.7% | 3.2% | 1.3% | 2.4% | 4.2% | 4.4% |  | 
44 | CSc1ncc(CN2CCC(N(C)Cc3ccc(Cl)c(Cl)c3)CC2)s1 |  |  |  |  |  |  | 10.7% | 
45 | Clc1cccc(CNC2CCN(Cc3cnc(Cl)s3)CC2)c1 | 7.2% | 3.2% | 4.1% | 3.8% |  | 2.4% |  | 
46 | COc1nccc(N2CCC(N(C)Cc3ccc(C#N)cc3)CC2)n1 | 58.1% | 27.7% | 16.6% | 60.4% | 31.7% | 66.2% |  | 
47 | COc1cc(N2CCC(N(C)Cc3ccc(Cl)c(Cl)c3)CC2)ncn1 | 9.2% | 6.5% | 28% | 9.8% |  |  |  | 
48 | COc1nccc(N2CCC(N(C)Cc3ccc(F)cc3)CC2)n1 |  |  | 9% |  |  |  |  | 6.55
49 | CCOc1ncc(CN2CCC(N(C)Cc3ccc(C#N)cc3)CC2)s1 |  |  | 6.7% |  |  |  | 5.49% | 
50 | CCOc1ncc(CN2CCC(N(C)Cc3ccccc3C#N)CC2)s1 |  |  | 7.2% |  |  |  |  | 
51 | COc1nccc(N2CCC(N(C)Cc3cccc(F)c3)CC2)n1 |  | 8.5% | 3.9% | 9.9% | 9.2% |  |  | 

From ChEMBL document CHEMBL3414474, “Design and synthesis of piperidine derivatives as novel human heat shock protein 70 inhibitors for the treatment of drug-resistant tumors” (Eur J Med Chem, 2015)
